Assay results taken from patent publication US6706663B2, “Herbicidal 3-heterocyclic substituted benzisothiazole and benzisoxazole compounds” (Wyeth, priority 2000, dated 2004).

Tests used:
[1] = system: CASOB (Cassia obtusifolia); experiment: Postemergence herbicidal evaluation; assay type: in vivo, L.
Summary of the method: (§1)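 Seedlings grown about two weeks in flats, sprayed, then kept under standard greenhouse care. Rated visually 4–5 weeks after treatment on a 0–9 scale (stand, vigour, malformation, size, chlorosis, overall appearance) relative to untreated control; repeat tests averaged.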

[2] = system: AMBEL (Ambrosia artemisifolia); experiment: Postemergence herbicidal evaluation; assay type: in vivo, L.
Summary of the method: as §1

[3] = system: CHEAL (Chenopodium album); experiment: Postemergence herbicidal evaluation; assay type: in vivo, L.
Summary of the method: as §1

[4] = system: IPOHE (Ipomoea hederacea); experiment: Postemergence herbicidal evaluation; assay type: in vivo, (L.) Jacq.
Summary of the method: as §1

[5] = system: ABUTH (Abutilon theophrasti); experiment: Postemergence herbicidal evaluation; assay type: in vivo, Medic.
Summary of the method: as §1

[6] = system: MOOVA (Monochoria vaginalis); experiment: Flooded paddy, preemergence weed control; assay type: in vivo, Presl.; conditions: rated 3-4 weeks after treatment, 0-9 rating scale
Summary of the method: (§2)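 Visual 0–9 ratings versus controls scored stand, vigor, malformation, size, chlorosis and overall appearance. Plants grew from seeds or propagating organs sown 0.5 cm deep in silt loam, with water held 1.5–3 cm above the soil for the whole test under greenhouse care.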

GALAP (Galium aparine) [7] = experiment: Preemergence herbicidal evaluation; assay type: in vivo; conditions: rated 4-5 weeks after treatment
Summary of the method: (§3)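 Seeds planted in potting soil cups and sprayed preemergence with aqueous acetone compound solution. Greenhouse-grown; rated 4–5 weeks after treatment on a 0-9 visual scale (stand, vigor, malformation, size, chlorosis, appearance) versus control.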

SETVI (Setaria viridis) [8] = experiment: Postemergence herbicidal evaluation; assay type: in vivo, (L.) Beau
Summary of the method: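 ~2-wk seedlings; spray 0.0040–1.000 kg/ha in 50/50 acetone/water + 0.5% TWEEN 20, 40 psi nozzle. Greenhouse hold; visual 0–9 rating vs control at 4–5 wk; multiple tests averaged.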

[9] = system: TRZAWR (Wheat, Winter, cv Riband); experiment: Postemergence herbicidal evaluation; assay type: in vivo, Triticum aestivum
Summary of the method: as §1

ORYSAT (Rice, Tebonnet) [10] = experiment: Postemergence herbicidal evaluation; assay type: in vivo, Oryza sativa, (L.) Tebonnet
Summary of the method: as §1

GALAP (Galium aparine) [11] = experiment: Postemergence herbicidal evaluation; assay type: in vivo
Summary of the method: as §1

CYPIR (Cyperus iria) = experiment: Flooded paddy, preemergence weed control; assay type: in vivo; conditions: rated 3-4 weeks after treatment, 0-9 rating scale
Summary of the method: as §2

[12] = system: SAGPY (Sagittaria pygmaea); experiment: Flooded paddy, preemergence weed control; assay type: in vivo, L.; conditions: rated 3-4 weeks after treatment, 0-9 rating scale
Summary of the method: as §2

ORYSAT (Rice, Tebonnet) [13] = experiment: Preemergence herbicidal evaluation; assay type: in vivo, Oryza sativa, (L.) Tebonnet; conditions: rated 4-5 weeks after treatment
[14] = system: ECHCG (Echinochloa crus-galli); experiment: Preemergence herbicidal evaluation; assay type: in vivo, (L.) Beau; conditions: rated 4-5 weeks after treatment
Summary of the method: as §3

SETVI (Setaria viridis) [15] = experiment: Preemergence herbicidal evaluation; assay type: in vivo, (L.) Beau; conditions: rated 4-5 weeks after treatment
Summary of the method: as §3

[16] = system: CASOB (Cassia obtusifolia); experiment: Preemergence herbicidal evaluation; assay type: in vivo, L.; conditions: preemergence, rated 4-5 weeks after treatment
Summary of the method: as §3

[17] = system: AMBEL (Ambrosia artemisifolia); experiment: Preemergence herbicidal evaluation; assay type: in vivo, L.; conditions: rated 4-5 weeks after treatment
Summary of the method: as §3

[18] = system: CHEAL (Chenopodium album); experiment: Preemergence herbicidal evaluation; assay type: in vivo, L.; conditions: rated 4-5 weeks after treatment
Summary of the method: as §3

[19] = system: CYPSE (Cyperus serotinus); experiment: Flooded paddy, preemergence weed control; assay type: in vivo, Rottb.; conditions: rated 3-4 weeks after treatment, 0-9 rating scale
Summary of the method: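 Seeds or propagules were planted 0.5 cm deep in silt loam and flooded to 1.5–3 cm. Compounds in 50/50 v/v aqueous/acetone were pipetted into the flood water at about 0.0080 to 0.1250 kg/ha. After 3–4 weeks in the greenhouse, effect was rated visually on a 0–9 scale versus untreated control.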

`C#CCOC(=O)COc1ccsc1-c1nsc2ccc(-n3c(=O)cc(C(F)(F)F)n(C)c3=O)cc12` [Compound 39, 2-propynyl [[2-[5-[3,6-dihydro-3-methyl-2,6-dioxo-4-(trifluoromethyl)-1(2H)-pyrimidinyl]-1,2-benzisothiazol-3-yl]-3-thienyl]oxy]acetate] was tested, and the “Postemergence herbicidal rating, CASOB” value ([1]; rate 0.0320 kg/ha) was 0.0, the “Postemergence herbicidal rating, CASOB” value ([1]; rate 0.0620 kg/ha) was 0.0 and the “Postemergence herbicidal rating, AMBEL” value ([2]; rate 0.0320 kg/ha) was 3.0. For the same compound, the “Postemergence herbicidal rating, AMBEL” value ([2]; rate 0.0620 kg/ha) was 3.0, the “Postemergence herbicidal rating, CHEAL” value ([3]; rate 0.0320 kg/ha) was 0.0 and the “Postemergence herbicidal rating, CHEAL” value ([3]; rate 0.0620 kg/ha) was 4.0. The “Postemergence herbicidal rating, IPOHE” value ([4]; rate 0.0320 kg/ha) was 4.0, the “Postemergence herbicidal rating, IPOHE” value ([4]; rate 0.0620 kg/ha) was 4.0 and the “Postemergence herbicidal rating, ABUTH” value ([5]; rate 0.0320 kg/ha) was 2.0. The “Postemergence herbicidal rating, ABUTH” value ([5]; rate 0.0620 kg/ha) was 9.0, the “herbicidal rating, MOOVA” value ([6]; rate 0.0320 kg/ha) was 9.0 and the “herbicidal rating, MOOVA” value ([6]; rate 0.1250 kg/ha) was 9.0. The “Preemergence herbicidal rating GALAP” value (GALAP (Galium aparine) [7]; Rate 0.0620 kg/ha) was 0.0, the “GALAP preemergence herbicidal rating” value (GALAP (Galium aparine) [7]; Rate 0.1250 kg/ha) was 0.0 and the “GALAP preemergence herbicidal rating” value (GALAP (Galium aparine) [7]; Rate 0.2500 kg/ha) was 0.0. The “Postemergence herbicidal rating, SETVI” value (SETVI (Setaria viridis) [8]; rate 0.0320 kg/ha) was 0.0, the “Postemergence herbicidal rating, SETVI” value (SETVI (Setaria viridis) [8]; rate 0.0620 kg/ha) was 3.0 and the “Postemergence herbicidal rating, TRZAWR” value ([9]; rate 0.0320 kg/ha) was 1.5. The “Postemergence herbicidal rating, TRZAWR” value ([9]; rate 0.0620 kg/ha) was 2.0, the “Postemergence herbicidal rating, ORYSAT” value (ORYSAT (Rice, Tebonnet) [10]; rate 0.0320 kg/ha) was 1.5 and the “Postemergence herbicidal rating, ORYSAT” value (ORYSAT (Rice, Tebonnet) [10]; rate 0.0620 kg/ha) was 2.0. The “Postemergence herbicidal rating, GALAP” value (GALAP (Galium aparine) [11]; rate 0.0320 kg/ha) was 0.0, the “Postemergence herbicidal rating, GALAP” value (GALAP (Galium aparine) [11]; rate 0.0620 kg/ha) was 1.0 and the “herbicidal rating, CYPIR” value (CYPIR (Cyperus iria); rate 0.0320 kg/ha) was 5.0. The “herbicidal rating, CYPIR” value (CYPIR (Cyperus iria); rate 0.1250 kg/ha) was 5.0, the “herbicidal rating, SAGPY” value ([12]; rate 0.0320 kg/ha) was 0.0 and the “herbicidal rating, SAGPY” value ([12]; rate 0.1250 kg/ha) was 3.0. The “Preemergence herbicidal rating ORYSAT” value (ORYSAT (Rice, Tebonnet) [13]; Rate 0.0620 kg/ha) was 0.0, the “ORYSAT preemergence herbicidal rating” value (ORYSAT (Rice, Tebonnet) [13]; Rate 0.1250 kg/ha) was 0.0 and the “ORYSAT preemergence herbicidal rating” value (ORYSAT (Rice, Tebonnet) [13]; Rate 0.2500 kg/ha) was 1.0. The “Preemergence herbicidal rating ECHCG” value ([14]; Rate 0.0620 kg/ha) was 0.0, the “ECHCG preemergence herbicidal rating” value ([14]; Rate 0.1250 kg/ha) was 0.0 and the “ECHCG preemergence herbicidal rating” value ([14]; Rate 0.2500 kg/ha) was 0.0. The “Preemergence herbicidal rating SETVI” value (SETVI (Setaria viridis) [15]; Rate 0.0620 kg/ha) was 0.0, the “SETVI preemergence herbicidal rating” value (SETVI (Setaria viridis) [15]; Rate 0.1250 kg/ha) was 1.0 and the “SETVI preemergence herbicidal rating” value (SETVI (Setaria viridis) [15]; Rate 0.2500 kg/ha) was 6.0. The “CASOB preemergence herbicidal rating” value ([16]; Rate 0.1250 kg/ha) was 0.0, the “CASOB preemergence herbicidal rating” value ([16]; Rate 0.2500 kg/ha) was 0.0 and the “Preemergence herbicidal rating AMBEL” value ([17]; Rate 0.0620 kg/ha) was 0.0. For the same compound, the “AMBEL preemergence herbicidal rating” value ([17]; Rate 0.1250 kg/ha) was 0.0, the “AMBEL preemergence herbicidal rating” value ([17]; Rate 0.2500 kg/ha) was 0.0 and the “Preemergence herbicidal rating CHEAL” value ([18]; Rate 0.0620 kg/ha) was 5.0. The “CHEAL preemergence herbicidal rating” value ([18]; Rate 0.1250 kg/ha) was 9.0, the “CHEAL preemergence herbicidal rating” value ([18]; Rate 0.2500 kg/ha) was 9.0 and the “herbicidal rating, CYPSE” value ([19]; rate 0.0320 kg/ha) was 0.0. For the same compound, the “herbicidal rating, CYPSE” value ([19]; rate 0.1250 kg/ha) was 0.0.
